# Measurements taken from ChEMBL document CHEMBL4308841, “Synthesis, in vitro antiproliferative activity, and kinase inhibitory effects of pyrazole-containing diarylureas and diarylamides” (Eur J Med Chem, 2018).
# Experiments:
# NCI-H226 = test: Growth inhibition of human NCI-H226 cells incubated for 48 hrs by sulforhodamine B assay; assay type: functional, cell-based; settings: NCI-H226, 48 h
# UACC-257 = test: Growth inhibition of human UACC257 cells assessed as cell growth at 0.1 uM incubated for 48 hrs by sulforhodamine B assay relative to control; assay type: functional; settings: UACC-257, 48 h, read-out: Activity
# NCI-H522 = test: Growth inhibition of human NCI-H522 cells assessed as cell growth at 0.1 uM incubated for 48 hrs by sulforhodamine B assay relative to control; assay type: functional; settings: NCI-H522, 48 h, read-out: Activity
# RPMI-8226 = test: Growth inhibition of human RPMI8226 cells assessed as cell growth at 1 uM incubated for 48 hrs by sulforhodamine B assay relative to control; assay type: functional; settings: RPMI-8226, 48 h, read-out: Activity
# SK-MEL-28 = test: Growth inhibition of human SK-MEL-28 cells assessed as cell growth at 0.1 uM incubated for 48 hrs by sulforhodamine B assay relative to control; assay type: functional; settings: SK-MEL-28, 48 h, read-out: Activity
# HCT-15 = test: Growth inhibition of human HCT15 cells assessed as cell growth at 1 uM incubated for 48 hrs by sulforhodamine B assay relative to control; assay type: functional; settings: HCT-15, 48 h, read-out: Activity
# NCI/ADR-RES = test: Growth inhibition of human NCI/ADR-RES cells assessed as cell growth at 1 uM incubated for 48 hrs by sulforhodamine B assay relative to control; assay type: functional; settings: read-out: Activity
# MDA-MB-468 [1] = test: Growth inhibition of human MDA-MB-468 cells assessed as cell growth at 1 uM incubated for 48 hrs by sulforhodamine B assay relative to control; assay type: functional; settings: MDA-MB-468, 48 h, read-out: Activity
# RXF 393 = test: Growth inhibition of human RXF393 cells assessed as cell growth at 100 uM incubated for 48 hrs by sulforhodamine B assay relative to control; assay type: functional; settings: RXF 393, 48 h, read-out: Activity
# COLO 205 = test: Growth inhibition of human COLO205 cells assessed as cell growth at 0.1 uM incubated for 48 hrs by sulforhodamine B assay relative to control; assay type: functional; settings: COLO 205, 48 h, read-out: Activity
# CCRF-CEM [2] = test: Growth inhibition of human CCRF-CEM cells incubated for 48 hrs by sulforhodamine B assay; assay type: functional, cell-based
# NCI-H322M = test: Growth inhibition of human NCI-H322M cells assessed as cell growth at 100 uM incubated for 48 hrs by sulforhodamine B assay relative to control; assay type: functional; settings: read-out: Activity
# MDA-MB-468 [3] = test: Growth inhibition of human MDA-MB-468 cells incubated for 48 hrs by sulforhodamine B assay; assay type: functional, cell-based; settings: MDA-MB-468, 48 h
# SF-268 = test: Growth inhibition of human SF268 cells assessed as cell growth at 1 uM incubated for 48 hrs by sulforhodamine B assay relative to control; assay type: functional; settings: SF-268, 48 h, read-out: Activity
# CCRF-CEM [4] = test: Growth inhibition of human CCRF-CEM cells assessed as cell growth at 0.1 uM incubated for 48 hrs by sulforhodamine B assay relative to control; assay type: functional; settings: read-out: Activity
# SK-MEL-5 = test: Growth inhibition of human SK-MEL-5 cells assessed as cell growth at 0.1 uM incubated for 48 hrs by sulforhodamine B assay relative to control; assay type: functional; settings: SK-MEL-5, 48 h, read-out: Activity
# U-251 = test: Growth inhibition of human U251 cells assessed as cell growth at 100 uM incubated for 48 hrs by sulforhodamine B assay relative to control; assay type: functional; settings: U-251, 48 h, read-out: Activity
# NCI-H460 = test: Growth inhibition of human NCI-H460 cells assessed as cell growth at 100 uM incubated for 48 hrs by sulforhodamine B assay relative to control; assay type: functional; settings: NCI-H460, 48 h, read-out: Activity
# Malme-3M [5] = test: Growth inhibition of human MALME-3M cells incubated for 48 hrs by sulforhodamine B assay; assay type: functional, cell-based
# A549 = test: Growth inhibition of human A549/ATCC cells assessed as cell growth at 0.1 uM incubated for 48 hrs by sulforhodamine B assay relative to control; assay type: functional; settings: A549, 48 h, read-out: Activity
# Malme-3M [6] = test: Growth inhibition of human MALME-3M cells assessed as cell growth at 0.1 uM incubated for 48 hrs by sulforhodamine B assay relative to control; assay type: functional; settings: read-out: Activity
# SW-620 = test: Growth inhibition of human SW620 cells incubated for 48 hrs by sulforhodamine B assay; assay type: functional, cell-based; settings: SW-620, 48 h
# MDA-MB-435 = test: Growth inhibition of human MDA-MB-435 cells assessed as cell growth at 0.1 uM incubated for 48 hrs by sulforhodamine B assay relative to control; assay type: functional; settings: MDA-MB-435, 48 h, read-out: Activity
# M14 = test: Growth inhibition of human M14 cells assessed as cell growth at 100 uM incubated for 48 hrs by sulforhodamine B assay relative to control; assay type: functional; settings: M14, 48 h, read-out: Activity
# PC-3 = test: Growth inhibition of human PC3 cells assessed as cell growth at 0.1 uM incubated for 48 hrs by sulforhodamine B assay relative to control; assay type: functional; settings: PC-3, 48 h, read-out: Activity
# CCRF-CEM [7] = test: Growth inhibition of human CCRF-CEM cells assessed as cell growth at 1 uM incubated for 48 hrs by sulforhodamine B assay relative to control; assay type: functional; settings: read-out: Activity
# T47D = test: Growth inhibition of human T47D cells assessed as cell growth at 100 uM incubated for 48 hrs by sulforhodamine B assay relative to control; assay type: functional; settings: read-out: Activity
# SF-539 = test: Growth inhibition of human SF539 cells assessed as cell growth at 0.01 uM incubated for 48 hrs by sulforhodamine B assay relative to control; assay type: functional; settings: SF-539, 48 h, read-out: Activity
# HOP-62 = test: Growth inhibition of human HOP62 cells assessed as cell growth at 100 uM incubated for 48 hrs by sulforhodamine B assay relative to control; assay type: functional; settings: HOP-62, 48 h, read-out: Activity
# MDA-MB-231 = test: Growth inhibition of human MDA-MB-231 cells assessed as cell growth at 0.01 uM incubated for 48 hrs by sulforhodamine B assay relative to control; assay type: functional; settings: MDA-MB-231, 48 h, read-out: Activity
# [8] = read-out: LC50 (the source's name)
# [9] = read-out: pLC50 (the source's name) (converted)
compound,measurement,setting,value
COc1cc(Cl)cc(-c2nn(-c3cccc(NC(=O)Nc4cccc(C(F)(F)F)c4)c3)cc2-c2ccncc2)c1,GI50,NCI-H226; read-out: GI50,2.26 µM
same,LC50,NCI-H226; read-out: LC50,> 100 µM
same,TGI,NCI-H226; read-out: TGI,11.5 µM
same,GI50,NCI-H226; read-out: pGI50 (converted),2.24 µM
same,LC50,NCI-H226; read-out: pLC50 (converted),> 100 µM
same,TGI,NCI-H226; read-out: pTGI (converted),28.8 µM
same,growth at 0.1 µM,UACC-257,94%
same,growth at 0.1 µM,NCI-H522,53%
same,growth at 1 µM,RPMI-8226,22%
same,growth at 0.1 µM,SK-MEL-28,100%
same,growth at 1 µM,HCT-15,57%
same,growth at 1 µM,NCI/ADR-RES,65%
same,growth at 1 µM,MDA-MB-468 [1],51%
same,growth at 100 µM,RXF 393,-80%
same,growth at 0.1 µM,COLO 205,101%
same,GI50,CCRF-CEM [2]; read-out: GI50,1.2 µM
same,CC50,CCRF-CEM [2]; [8],> 100 µM
same,TGI,CCRF-CEM [2]; read-out: TGI,53.6 µM
same,GI50,CCRF-CEM [2]; read-out: pGI50 (converted),1.2 µM
same,CC50,CCRF-CEM [2]; [9],> 100 µM
same,TGI,CCRF-CEM [2]; read-out: pTGI (converted),5.37 µM
same,growth at 100 µM,NCI-H322M,-8%
same,IC50,MDA-MB-468 [3],1.05 µM
same,GI50,MDA-MB-468 [3]; read-out: GI50,1.05 µM
same,CC50,MDA-MB-468 [3]; [8],> 100 µM
same,TGI,MDA-MB-468 [3]; read-out: TGI,49.9 µM
same,GI50,MDA-MB-468 [3]; read-out: pGI50 (converted),1.05 µM
same,CC50,MDA-MB-468 [3]; [9],> 100 µM
same,TGI,MDA-MB-468 [3]; read-out: pTGI (converted),5.01 µM
same,growth at 1 µM,SF-268,79%
same,growth at 0.1 µM,CCRF-CEM [4],97%
same,growth at 0.1 µM,SK-MEL-5,98%
same,growth at 100 µM,U-251,-100%
same,growth at 100 µM,NCI-H460,-48%
same,GI50,Malme-3M [5]; read-out: GI50,1.79 µM
same,CC50,Malme-3M [5]; [8],> 100 µM
same,TGI,Malme-3M [5]; read-out: TGI,59.1 µM
same,GI50,Malme-3M [5]; read-out: pGI50 (converted),1.78 µM
same,CC50,Malme-3M [5]; [9],> 100 µM
same,TGI,Malme-3M [5]; read-out: pTGI (converted),5.89 µM
same,growth at 0.1 µM,A549,96%
same,growth at 0.1 µM,Malme-3M [6],50%
same,GI50,SW-620; read-out: GI50,2.3 µM
same,LC50,SW-620; read-out: LC50,> 100 µM
same,TGI,SW-620; read-out: TGI,25.8 µM
same,GI50,SW-620; read-out: pGI50 (converted),2.29 µM
same,LC50,SW-620; read-out: pLC50 (converted),> 100 µM
same,TGI,SW-620; read-out: pTGI (converted),26.9 µM
same,growth at 0.1 µM,MDA-MB-435,97%
same,growth at 100 µM,M14,-78%
same,growth at 0.1 µM,PC-3,57%
same,growth at 1 µM,CCRF-CEM [7],56%
same,growth at 100 µM,T47D,-25%
same,growth at 0.01 µM,SF-539,100%
same,growth at 100 µM,HOP-62,-41%
same,growth at 0.01 µM,MDA-MB-231,102%
COc1cc(Cl)cc(-c2nn(-c3cccc(NC(=O)Nc4ccc(Cl)c(Cl)c4)c3)cc2-c2ccncc2)c1,GI50,NCI-H226; read-out: GI50,3.06 µM
same,LC50,NCI-H226; read-out: LC50,> 100 µM
same,TGI,NCI-H226; read-out: TGI,> 100 µM
same,GI50,NCI-H226; read-out: pGI50 (converted),3.09 µM
same,LC50,NCI-H226; read-out: pLC50 (converted),> 100 µM
same,TGI,NCI-H226; read-out: pTGI (converted),> 100 µM
same,growth at 0.1 µM,UACC-257,96%
same,growth at 0.1 µM,NCI-H522,53%
same,growth at 1 µM,RPMI-8226,39%
same,growth at 0.1 µM,SK-MEL-28,103%
same,growth at 1 µM,HCT-15,77%
same,growth at 1 µM,NCI/ADR-RES,78%
same,growth at 1 µM,MDA-MB-468 [1],69%
same,growth at 100 µM,RXF 393,-43%
same,growth at 0.1 µM,COLO 205,103%
same,GI50,CCRF-CEM [2]; read-out: GI50,2 µM
same,CC50,CCRF-CEM [2]; [8],> 100 µM
same,TGI,CCRF-CEM [2]; read-out: TGI,50 µM
same,GI50,CCRF-CEM [2]; read-out: pGI50 (converted),2 µM
same,CC50,CCRF-CEM [2]; [9],> 100 µM
same,TGI,CCRF-CEM [2]; read-out: pTGI (converted),6.03 µM
same,growth at 100 µM,NCI-H322M,3%
same,IC50,MDA-MB-468 [3],1.74 µM
same,GI50,MDA-MB-468 [3]; read-out: GI50,1.74 µM
same,CC50,MDA-MB-468 [3]; [8],> 100 µM
same,TGI,MDA-MB-468 [3]; read-out: TGI,73.7 µM
same,GI50,MDA-MB-468 [3]; read-out: pGI50 (converted),1.74 µM
same,CC50,MDA-MB-468 [3]; [9],> 100 µM
same,TGI,MDA-MB-468 [3]; read-out: pTGI (converted),7.41 µM
same,growth at 1 µM,SF-268,88%
same,growth at 0.1 µM,CCRF-CEM [4],97%
same,growth at 0.1 µM,SK-MEL-5,96%
same,growth at 100 µM,U-251,-68%
same,growth at 100 µM,NCI-H460,-8%
same,GI50,Malme-3M [5]; read-out: GI50,2.06 µM
same,CC50,Malme-3M [5]; [8],> 100 µM
same,TGI,Malme-3M [5]; read-out: TGI,75.5 µM
same,GI50,Malme-3M [5]; read-out: pGI50 (converted),2.04 µM
same,CC50,Malme-3M [5]; [9],> 100 µM
same,TGI,Malme-3M [5]; read-out: pTGI (converted),7.94 µM
same,growth at 0.1 µM,A549,97%
same,growth at 0.1 µM,Malme-3M [6],50%
same,GI50,SW-620; read-out: GI50,3.43 µM
same,LC50,SW-620; read-out: LC50,> 100 µM
same,TGI,SW-620; read-out: TGI,> 100 µM
same,GI50,SW-620; read-out: pGI50 (converted),3.39 µM
same,LC50,SW-620; read-out: pLC50 (converted),> 100 µM
same,TGI,SW-620; read-out: pTGI (converted),> 100 µM
same,growth at 0.1 µM,MDA-MB-435,99%
same,growth at 100 µM,M14,-36%
same,growth at 0.1 µM,PC-3,98%
same,growth at 1 µM,CCRF-CEM [7],82%
same,growth at 100 µM,T47D,-9%
same,growth at 0.01 µM,SF-539,100%
same,growth at 100 µM,HOP-62,12%
same,growth at 0.01 µM,MDA-MB-231,109%
